# US10821123B2, “Use of ribose for treatment of subjects having congestive heart failure” (priority 2016, dated 2020)
# Tests used:
# [1] = test system: mice with chronic pressure overload (ascending aortic constriction); assay: Mouse model of chronic pressure overload (ascending aortic constriction), myocardial remodeling; assay type: in vivo
# Excerpt: This remodeling effect was manifested by lower left ventricular dimensions, lower ventricular wall thicknesses, and greater fractional shortening values compared to untreated controls. […] The study consisted of two ribose treated groups (high and low dose) with the high dose treated group responding better than the low dose group compared to untreated controls. The high dose provided D-ribose exposures that were 4-fold greater than observed in the low dose group providing evidence of a dose effect. The once daily, subcutaneous administration of D-ribose was intended to mimic once daily oral dosing in humans. […] Mice were subjected to ascending aortic constriction (AAC) leading to LV hypertrophy followed by severe LV systolic dysfunction and associated heart failure. In this situation, mitochondrial ATP synthesis is reduced and ROS production is increased in association with advancing heart failure. Reduced ATP levels can contribute to progressive loss of cardiac function from increasing energy deficit. Increased ROS can result in oxidation of critical enzymes and a diminished reducing environment, leading to apoptosis and fibrosis, which are aspects of cardiac remodeling. Mice were divided into four groups; Sham controls (same thoracic surgery with no constriction), AAC untreated, and AAC D-ribose treated (high and low dose). D-ribose for injection (5% to 50% weight/volume) was administered at a dose of 25 to 500 mg/kg body weight by subcutaneous or intraperitoneal injection one to four times daily. After initiation of D-ribose treatment, animals in all groups were monitored for progressive heart failure using echocardiography. LV volumes, fractional shortening, and LV wall thicknesses were measured at 10 and 15 weeks. When LV dilation and fractional shortening were sufficiently advanced, animals were subjected to physical function testing using a motorized treadmill. Animals were allowed to recover for one week and their hearts were harvested and evaluated histologically for myocyte hypertrophy and fibrosis.
# [2] = Safety, tolerability and pharmacokinetics of multiple oral doses of D-ribose solution in subjects with stable chronic heart failure; assay type: in vivo, human
# Method: Although a morning oral dose of D-ribose (overnight fasting) produced significant blood plasma levels, the mid-day and evening doses produced diminished blood levels similar to that observed in healthy subjects given food immediately prior to dosing, even though D-ribose administration to subjects with stable congestive heart failure occurred over 2 hours after their previous meal.
# The safety, tolerability, pharmacokinetics and pharmacodynamics of multiple oral doses of D-ribose solution was studied in 14 subjects with stable, chronic heart failure. It is well known that bolus oral D-ribose can induce a dose-dependent transient hypoglycemia that is preceeded by a transient spike in insulin levels. This can result in symptomatic hypoglycemia in subjects whose blood glucose levels fall sufficiently far. This transient hypoglycemia is the dose limiting side effect of D-ribose treatment, although it is readily overcome by drinking a glass of fruit juice. For this reason, subjects were initially administered a 10 g dose, fasted, followed 5 hours later by a 5 g dose at least 2.5 hours after the end of the previous meal. Subjects that tolerated the 10 g dose completed the remainder of the study at the 10 g dose. […] All subjects tolerated the 10 g dose, so the remainder of the study was conducted using the 10 g dose only. For the next two days, subjects were administered 10 g of D-ribose solution three times daily at 5 hour intervals beginning with a fasted morning dose around 7 a.m. Meals were served two hours after each dose such that the second and third daily doses were administered approximately 2.5 hours after completion of the previous meal. On the third day of dosing, subjects were administered a single dose of chewable tablets containing 16 g of glucose at 0, 30, and 60 minutes post-dose according to a predefined randomization schedule. The purpose of this was to determine whether glucose could attenuate any symptomatic hypoglycemia (if observed), or if it would impact the rate or extent of D-ribose absorption into the blood. Blood levels of D-ribose and insulin were determined at pre-defined time points throughout the study. Blood glucose levels were monitored continuously throughout the study. Four major outcomes emerged from this study. […] This phenomenon was not observed in normal subjects and appears unique to heart failure patients. Lastly, supplemental glucose administered between 0 and 60 minutes post-dose had no effect on D-ribose absorption into the blood.
# [3] = test system: dogs with pacing-induced heart failure; assay: Canine model of heart failure induced by chronic cardiac pacing, longevity; assay type: in vivo
# Excerpt: It has been shown that administration of D-ribose can improve cardiac function in animal models of heart failure. […] Animals treated with once daily, oral D-ribose at a weight equivalent dose of 10 g in a 70 kg human lived 40% longer than placebo animals. It has been hypothesized that D-ribose helps retain cardiac function by maintaining the adenylate pool in cardiomyocytes that are overworked due to underlying heart disease. Supplemental D-ribose can bypass the cell's need to synthesize D-ribose via the pentose phosphate shunt, which can be a rate limiting step to synthesis of ATP in cardiomyocytes by either the salvage or de novo pathways. It has been shown in several studies that D-ribose can enhance the rate of recovery of ATP and other constituents of the adenylate pool in the hearts of animals subjected to hypoxic stress. However, there may be additional benefits to D-ribose treatment in subjects suffering from diminished mitochondrial function in disease states such as coronary artery disease, ischemic heart disease, dilated cardiomyopathy, or other conditions leading to heart failure.
# Dogs were surgically implanted with a cardiac pacing device used to induce heart failure through chronic cardiac pacing. In addition, an aortic catheter, coronary sinus catheter (for blood sampling), left ventricular catheter and pressure transducer, left ventricular piezoelectric crystals, and a transonic flow probe in the left circumflex coronary artery were implanted to measure a variety of hemodynamic parameters and to sample coronary venous blood. Subsequent to recovery from surgery, animals were paced for 3 weeks at a rate of 210 beats per minute (bpm) followed by an increased rate of 350 bpm which continued until the animals were deemed to be terminal. Hemodynamic and metabolic measurements were made on a scheduled basis throughout the pacing period. Dogs were treated with 150 mg/kg D-ribose solution orally either once daily (fasted) or three times daily. Placebo dogs were given an equivalent volume of water. D-ribose treatment started 10 days following the start of pacing and continued until the animal was deemed to be terminal. […] However, one significant difference was how long the D-ribose treated animals lived. Dogs treated once daily lived an average of 38.3 days versus 27.3 days for placebo animals (p<0.03). Furthermore, although the group of dogs treated three times daily (tid) with D-ribose consisted of fewer animals than the group of dogs treated once daily, the tid group lived on average 30.5 days, which was not statistically different than placebo animals (p>0.20). […]
# [4] = test system: patients with NYHA Class II to IV heart failure; assay: Functional improvement in patients with NYHA Class II to IV heart failure taking D-ribose; assay type: in vivo, human; settings: 10 to 50 g oral once daily fasted
# Method: (§1) Oral D-ribose powder for solution is administered at a dose of 10 to 50 grams per dose, once daily, fasted (e.g., 3 hours, 4, hours, 5 hours, 6 hours, 7 hours, 8 hours, 9 hours, 10 hours, 11 hours, 12 hours, or more). D-ribose powder for solution is dissolved in 50 to 250 mL of water or clear beverage and is consumed within a 15 to 60 minute period. It is preferred that D-ribose be administered to patients that are fasted. Patients are administered D-ribose for a period of at least two weeks, but possibly for the remainder of their lives.
# [5] = test system: patients with NYHA Class II to IV heart failure; assay: Remodeling effects in patients with NYHA Class II to IV heart failure taking D-ribose; assay type: in vivo, human; settings: 10 to 50 g oral once daily fasted, within 3 months to one year
# Method: as §1, with “and” for “and is”, “administered” for “administered to patients that are”, “weeks” for “weeks,”, “lives. Within a period of 3 months to one year, in at least some embodiments, patients taking D-ribose may have a lower Left Ventricular Systolic Volume Index ([…]), a lower Left Ventricular Diastolic Volume Index ([…]), higher Ejection Fractions (EF), higher dP/dtmax values, lower dP/dtmin values, and/or higher cardiac output than patients taking placebo.” for “lives.”
# [6] = test system: patients with acute decompensated heart failure; assay: Dyspnea and/or edema in patients hospitalized for acutely decompensated heart failure; assay type: in vivo, human; settings: 10 to 50 g oral once daily fasted
# Method: Patients admitted to the hospital for acute decompensated heart failure may be given oral D-ribose powder for solution at a dose of 10 to 50 grams per dose, once daily, fasted (e.g., 3 hours, 4, hours, 5 hours, 6 hours, 7 hours, 8 hours, 9 hours, 10 hours, 11 hours, 12 hours, or more). D-ribose powder for solution is dissolved in 50 to 250 mL (preferably 50 mL in this case) of water or clear beverage and consumed within a 15 to 60 minute period. It is preferred that D-ribose be administered to patients that are fasted. Patients are treated until symptoms of dyspnea and fluid overload have stabilized.
# [7] = healthy subjects, oral; cited from earlier work
# [8] = high dose AAC D-ribose treated vs AAC control mice, p<0.05
# [9] = low dose AAC D-ribose treated vs AAC controls, not statistically significant
smiles,measurement,setting,value
O=C[C@H](O)[C@H](O)[C@H](O)CO [D-ribose],heart weights,[1]; D-ribose treated animals vs untreated controls,heart weights were greater in untreated controls than D-ribose treated animals
same,fibrosis by differential staining (tissue sections),[1]; [8],significantly less fibrosis
same,myocyte diameters (tissue sections),[1]; [8],significantly smaller
same,left ventricular fractional shortening (echocardiography),"[1]; high dose AAC D-ribose treated vs AAC controls, p<0.01",significantly lower degree of remodeling
same,left ventricular dimensions (echocardiography),"[1]; high dose AAC D-ribose treated vs AAC controls, p<0.01 at systole, p=0.01 at diastole",significantly lower degree of remodeling
same,total wall thickness (echocardiography),"[1]; high dose AAC D-ribose treated vs AAC controls, p<0.03",significantly lower degree of remodeling
same,left ventricular dimensions (echocardiography),[1]; [9],numerical improvements
same,left ventricular fractional shortening (echocardiography),[1]; [9],numerical improvements
same,total wall thickness (echocardiography),"[1]; low dose AAC D-ribose treated vs AAC controls, p<0.04",statistically significant
same,"D-ribose exposure, high dose relative to low dose group","[1]; mice, once daily subcutaneous dose",4 fold
same,episodes of symptomatic hypoglycemia,"[2]; 10 g bolus oral dose, even with fasted doses",no episodes of symptomatic hypoglycemia
same,tolerability,"[2]; 10 g bolus oral dose, subjects with stable chronic heart failure",well tolerated
same,effect of supplemental glucose on D-ribose absorption into the blood,"[2]; 16 g glucose chewable tablets at 0, 30 or 60 minutes post-dose",no effect
same,share of non-fasted doses with blood levels less than 15% of a 10 g fasted dose,[2]; oral 10 g mid-day and evening doses,30%
same,blood levels from mid-day and evening doses relative to 10 g fasted morning dose,"[2]; oral 10 g, approximately 2.5 hours after previous meal",roughly 40%
same,"mean blood level exposure of mid-day 5 g dose, lower than 10 g fasted morning dose","[2]; oral, 5 g mid-day dose at least 2.5 hours after previous meal vs 10 g fasted morning dose",30 fold
same,hemodynamics or other metabolic measures vs placebo,[3]; 150 mg/kg oral D-ribose treated dogs,no significant differences
same,average survival time,"[3]; 150 mg/kg oral once daily (fasted), p<0.03 vs placebo (27.3 days)",38.3 days
same,average survival time,"[3]; 150 mg/kg oral three times daily (tid), p>0.20 vs placebo, not statistically different",30.5 days
same,longer life than placebo animals,[3]; once daily oral dose equivalent to 10 g in a 70 kg human,40%
same,sub-maximal (Six Minute Walk Test) or maximal (CPX) exercise capacity,[4],may exhibit improved sub-maximal exercise capacity
same,"assessments of fatigue, dyspnea, edema, Global Clinical Status and other outcomes","[4]; within 3 months to one year, vs patients not taking D-ribose",may show improved assessments
same,"LVESVI, LVEDVI, EF, dP/dtmax, dP/dtmin, cardiac output vs placebo",[5],may have a lower Left Ventricular Systolic Volume Index (LVESVI)
same,symptoms of dyspnea vs patients taking diuretics only,[6],may exhibit reduced symptoms of dyspnea within a significantly shorter timeframe
same,absorption relative to metabolism,[7],absorbed faster than it is metabolized
same,blood levels after administration immediately following meals vs after fasting,[7],greatly reduced
same,dose proportionality of blood levels,[7],increase more than proportionally with increasing dose
